Patent US20230116703A1, “NOVEL ERGOLINES AND METHODS OF TREATING MOOD DISORDERS” (priority 2021, published 2023)

System: C57BL/6 mice
Assay: Marble burying test (MBT) in mice
Format: in vivo
Conditions: mouse, SC, 30-minute period
Experimental: Compound 1 produced an anxiolytic-like effect in the marble burying test (MBT) in C57BL/6 mice (FIG. 3).
Animals. Adult male C57BL/6 mice, aged 8-10 weeks (body weight 20-25 g) were used in these experiments. Animals were housed under controlled temperatures and 12-hour light/dark cycles (lights on between 07:00-19:00 h), with ad libitum food and water. This study was carried out in strict accordance with the requirements of the Committee for the Purpose of Control and Supervision of Experiments on Animals (CPCSEA), India. All efforts were made to minimize suffering.
Drugs and Drug Administration. Compound 1 was synthesized as described above. Desipramine HCl was commercially obtained. The test compound, vehicle, and the positive control desipramine were administered subcutaneously (SC), with doses calculated based on the freebase. Normal saline was used as the vehicle. All compounds were administered at a volume of 10 mL/kg. All treatments were administered 30 minutes prior to the start of behavioral testing. Group size was n=9-10 per treatment.
Marble Burying Test (MBT). […] Mice were handled for about 2 min daily for the 3 days prior to the beginning of the experimental procedure. […] The total number of marbles buried were counted in three 10-minute time bins (total 30 minutes). […]

CCCN1C[C@H](C(=O)N(CC)CC)C=C2c3cccc4[nH]cc(c34)C[C@H]21 [Compound 1, (6aR,9R)—N,N-diethyl-7-propyl-4,6,6a,7,8,9-hexahydroindolo[4,3-fg]quinoline-9-carboxamide]
number of marbles buried compared to vehicle (in words): reduced the number of marbles buried
